Results on two compounds are retold here after patent US7932063B2, “Treatment of biomass to obtain fermentable sugars” (E. I. du Pont de Nemours and Company, priority 2005, dated 2011).

Where two headings read alike, the source gives them in different places.

This data set relates to Z. mobilis strain 8b.
Where [1] appears, read: medium supplemented with 6 g/L acetamide, pH 6.0, 30° C., vs unsupplemented control, FIG. 1.
[2] abbreviates: medium supplemented with 7.2 g/L acetic acid, pH 6.0, 30° C., vs unsupplemented control, FIG. 1.

Excerpt: Fermentation medium was composed of 10 g/L yeast extract, 2 g/L KH2PO4, 70 g/L glucose, 40 g/L xylose and 0.1 M MES buffer.

Take `CC(N)=O` [acetamide]: under setting [1], the “final density of Z. mobilis” value was “no influence” and the “growth rate of Z. mobilis” value is listed as “no influence”. Also, under “summary statement referring to Example 12”, the “inhibition of biocatalyst growth” value was “non-inhibitory”.
As to `CC(=O)O` [acetic acid], under setting [2], the “cell yield (as measured by dry cell mass)” value is recorded as “lower cell yield” and the “growth rate of Z. mobilis” value is “reduced growth rate”.
